From publication PMC12044326 (Clinical Pharmacology in Drug Development, 2025)
Where two headings read alike, the source gives them in different places.

Tests used:
CYP2B6 = settings: hepatocytes
Description: (§1) respectively; XenoTech) were treated once daily for 3 consecutive days and cultured according
(§2) to previously described methods.2-4 Each culture well was treated with supplemented modified Chee's medium (0.2 mL) containing 0.1% v/v d imethylsulfoxide (DM SO ; vehicle control),
(§3) μmol/L) or 1 of 3 known human CYP enzyme inducers (omeprazole 50 μmol/L, phenobarbital
Cultures were visualized with a
(§4) representative well from each treatment group was photographed with a PAXcam 5 (MIS, Inc.
(§5) Villa Park, IL, USA) digital camera to document morphological integrity.
(§6) β-mercaptoethanol (1:100), and the cell lysates were stored at −80°C. For each hepatocyte preparation, media from 3 wells per treatment group were aspirated, and 250 μL buf f er RLT was added to each well. The cell lysates were mixed by shaking (10 minutes at 800 rpm) and total RNA was isolated with a MagMAX-96 (Ambion/ Thermo Fisher Scientific) for Microarrays Kit using the RNeasy Mini Kit (Qiagen Inc., Germantown, MD, USA). The analysis of RNA integrity was carried out with the RNA 6000 Nano Assay Kit on an Agilent 2100 Bioanalyzer (Agilent Technologies, Inc., Santa Clara, CA, USA). […]
(§7) prepared samples were stored at −20°C prior to analysis by quantitative real-time (qRT)- […]

UGT1A9 [1] = molecular target: T1, UGT1A9 (Homo sapiens, UniProt O60656); assay: PBPK elimination inputs (retrograde model, fm, KM sensitivity); settings: PBPK input
T1 sequence (O60656 26-530): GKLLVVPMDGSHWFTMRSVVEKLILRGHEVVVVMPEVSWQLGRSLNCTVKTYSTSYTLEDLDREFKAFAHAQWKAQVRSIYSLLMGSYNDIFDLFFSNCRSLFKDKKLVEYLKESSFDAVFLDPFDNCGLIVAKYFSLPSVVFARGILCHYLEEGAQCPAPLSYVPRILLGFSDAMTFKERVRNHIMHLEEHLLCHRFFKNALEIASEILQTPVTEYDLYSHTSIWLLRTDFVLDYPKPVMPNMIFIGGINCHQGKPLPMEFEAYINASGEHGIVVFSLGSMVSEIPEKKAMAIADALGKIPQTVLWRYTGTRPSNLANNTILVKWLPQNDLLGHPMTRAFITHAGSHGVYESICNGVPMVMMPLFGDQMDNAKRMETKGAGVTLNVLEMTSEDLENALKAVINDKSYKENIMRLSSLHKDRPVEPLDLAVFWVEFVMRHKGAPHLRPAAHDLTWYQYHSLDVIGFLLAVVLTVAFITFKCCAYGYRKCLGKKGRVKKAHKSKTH

CYP1A2 = settings: hepatocytes
Description: as §1, §2, §3
Cultures were visualized with a
as §4, §5, §6, §7

in vitro = settings: human, Caco-2
Description: Caco-2 cells were obtained from American Type Culture Collection. Prior to the experiments,
the cells were seeded on 55 cm2 bottom culture dishes (Corning). The cells were cultured at
37°C in a humidified CO2 (5%) incubator and routinely passaged about once a week. Caco-2
cultured in the medium at 37°C in a humidified CO2 (5%) incubator for 23 days to prepare cell
The medium was changed 4 days after seeding and then changed every 2 or 3 days
thereafter. Before the experiment, the integrity of the Caco-2 cell monolayer was checked by
measuring the trans-epithelial electrical resistance (TEER) value. The TEER values of cell
In the transport experiments, the medium of top side of the cells (apical side) and basal
side of the cells (basal side) were replaced with the DMSO-HBSS solution, the inhibitor-HBSS
control), or the test solutions (digoxin and mannitol as substrates). The volumes of the replaced
solutions were 300 μL for the apical side and 1 mL for the basal side. The DMSO-HBSS […]
of the solution in each basal side (receiver side) were collected and measured for the
radioactivity using an LSC. […]
collected and measured for the radioactivity using an LSC. […]
side (receiver side) were collected and measured for the radioactivity using an LSC. […]
in each apical side and each basal side (donor side) were collected and measured for the
radioactivity using an LSC.

CYP2C9 = CYP2C9 (Homo sapiens, UniProt P11712); assay: Reversible CYP inhibition in human liver microsomes
UGT1A9 [2] = molecular target: T1, UGT1A9; parameters: method as in PMID 38123352; settings: cited from earlier work
UGT1A9 [3] = molecular target: T1, UGT1A9; settings: both, 20 min, pH 7.4
OATP1B3 [4] = molecular target: T2, OATP1B3 (Homo sapiens, UniProt Q9NPD5)
T2 sequence (Q9NPD5 1-702): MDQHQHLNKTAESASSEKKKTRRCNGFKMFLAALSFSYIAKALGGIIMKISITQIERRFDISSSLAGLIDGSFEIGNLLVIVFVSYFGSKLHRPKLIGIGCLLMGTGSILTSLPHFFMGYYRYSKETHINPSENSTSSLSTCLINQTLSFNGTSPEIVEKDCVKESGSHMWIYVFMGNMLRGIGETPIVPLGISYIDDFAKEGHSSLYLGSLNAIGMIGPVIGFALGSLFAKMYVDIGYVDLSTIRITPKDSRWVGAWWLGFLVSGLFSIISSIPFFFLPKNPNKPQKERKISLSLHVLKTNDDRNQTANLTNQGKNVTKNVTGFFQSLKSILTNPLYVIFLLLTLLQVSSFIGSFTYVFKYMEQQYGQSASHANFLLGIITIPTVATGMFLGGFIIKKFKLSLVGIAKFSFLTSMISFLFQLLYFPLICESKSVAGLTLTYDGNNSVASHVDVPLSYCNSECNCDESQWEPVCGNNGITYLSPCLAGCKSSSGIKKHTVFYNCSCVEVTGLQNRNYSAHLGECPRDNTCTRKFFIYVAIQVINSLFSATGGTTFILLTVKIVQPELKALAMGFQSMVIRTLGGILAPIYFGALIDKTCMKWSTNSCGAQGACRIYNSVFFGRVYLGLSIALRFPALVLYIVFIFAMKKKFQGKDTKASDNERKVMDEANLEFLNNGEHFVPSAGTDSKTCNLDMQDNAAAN

CYP3A4 [5] = assay: PBPK elimination inputs (retrograde model, fm); parameters: species or system human; settings: PBPK input
OATP1B3 [6] = molecular target: T2, OATP1B3; remark: listed apart in the source
CYP3A4 [7] = settings: predicted by combining in vitro phenotyping and human ADME data; cited from earlier work
CYP2C8 = molecular target: T3, CYP2C8 (Homo sapiens, UniProt P10632); assay: Reversible CYP inhibition in human liver microsomes
T3 sequence (P10632 1-490): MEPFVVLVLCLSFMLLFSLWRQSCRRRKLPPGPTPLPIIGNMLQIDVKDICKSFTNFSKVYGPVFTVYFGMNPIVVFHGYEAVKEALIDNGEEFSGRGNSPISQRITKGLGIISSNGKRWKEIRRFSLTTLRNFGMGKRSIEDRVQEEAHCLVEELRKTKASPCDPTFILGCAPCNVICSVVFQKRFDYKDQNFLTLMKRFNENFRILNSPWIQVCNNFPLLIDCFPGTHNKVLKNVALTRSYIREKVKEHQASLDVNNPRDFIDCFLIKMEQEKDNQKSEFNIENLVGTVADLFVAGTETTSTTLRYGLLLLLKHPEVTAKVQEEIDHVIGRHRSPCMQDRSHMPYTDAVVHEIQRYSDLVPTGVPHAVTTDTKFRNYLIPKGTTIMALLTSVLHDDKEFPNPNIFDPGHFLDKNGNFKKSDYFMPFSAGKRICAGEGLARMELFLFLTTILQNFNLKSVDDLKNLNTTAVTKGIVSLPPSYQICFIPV

UGT1A9 [8] = molecular target: T1, UGT1A9; parameters: with alamethicin-pretreated HLMs (0.5 mg/mL); tissue Sekisui-XenoTech; host or cells: pooled human liver microsomes (200 donors); settings: predicted by combining in vitro phenotyping and human ADME data; cited from earlier work
[9] = parameters: method as in earlier work; settings: ref 7 of supplement, cited from earlier work
[10] = Fig 2C, soticlestat 300 mg alone or with mefenamic acid, n = 14
[11] = 100 mg QD, Day 1, geometric mean
[12] = 100 mg QD, Day 14, geometric mean
[13] = 300 mg QD, Day 1, geometric mean
[14] = 300 mg QD, Day 14, geometric mean
[15] = 400 mg QD, Day 1, geometric mean
[16] = 400 mg QD, Day 14, geometric mean

Chain of CYP2C9 (P11712 whole entry): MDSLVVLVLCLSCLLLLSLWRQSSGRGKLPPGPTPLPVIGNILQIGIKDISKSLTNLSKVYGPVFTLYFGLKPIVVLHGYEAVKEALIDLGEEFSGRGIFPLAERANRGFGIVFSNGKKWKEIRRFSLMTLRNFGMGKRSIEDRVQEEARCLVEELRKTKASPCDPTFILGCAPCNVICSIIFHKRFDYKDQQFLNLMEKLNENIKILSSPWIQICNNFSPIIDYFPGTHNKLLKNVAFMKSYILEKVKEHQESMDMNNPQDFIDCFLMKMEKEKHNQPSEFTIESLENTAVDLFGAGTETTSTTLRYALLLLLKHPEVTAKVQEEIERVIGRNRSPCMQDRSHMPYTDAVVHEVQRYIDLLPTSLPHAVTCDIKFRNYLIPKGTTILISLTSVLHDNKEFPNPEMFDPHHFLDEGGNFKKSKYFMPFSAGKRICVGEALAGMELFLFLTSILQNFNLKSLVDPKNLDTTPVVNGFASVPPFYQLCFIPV

Q: Which “induction of CYP2B6” value (CYP2B6) does the source give for `O=C(c1cccnc1-c1ccncc1)N1CCC(O)(Cc2ccccc2)CC1` [Soticlestat] here?
A: nor did soticlestat induce

Q: What about the fmUGT1A9 (UGT1A9 [1]) of the same compound?
A: 0.1

Q: And the “induction of CYP1A2” value (CYP1A2)?
A: nor did soticlestat induce

Q: And the Papp (in vitro)?
A: 23.4 ×10⁻⁶ cm/s

Q: And the Ki (CYP2C9)?
A: 15.6 µM

Q: And the fumic (CYP2C9; human)?
A: 0.88

Q: What about the “inhibition of CYP2C9” value (CYP2C9; microsomes) of the same compound?
A: low double‐digit micromolar values

Q: And the AUC0-inf observed (UGT1A9 [2]; [10])?
A: 1526 ng·h/mL

Q: What about the Cmax observed (UGT1A9 [2]; [10]) of the same compound?
A: 1414 ng/mL

Q: What about the “effect on soticlestat exposure” value (UGT1A9 [2]; with mefenamic acid) of the same compound?
A: did not affect soticlestat exposure

Q: What about the “time‐ or metabolism‐dependent inhibition” value (major CYP enzymes) of the same compound?
A: did not exhibit time‐ or metabolism‐dependent inhibition

Q: What about the “fm of total UGT mediated glucuronidation via UGT1A9” value (UGT1A9 [3]) of the same compound?
A: ~10%

Q: And the “substrate for OATP1B3” value (OATP1B3 [4])?
A: not a substrate

Q: And the fmCYP3A (CYP3A4 [5])?
A: 0.1

Q: What about the “inhibition of OATP1B3” value (OATP1B3 [6]) of the same compound?
A: did not demonstrate clinically relevant inhibition

Q: And the “fm by CYP3A” value (CYP3A4 [7])?
A: 9.5%

Q: What about the Ki (CYP2C8) of the same compound?
A: 14.5 µM

Q: What about the fumic (CYP2C8; human) of the same compound?
A: 0.98

Q: What about the “inhibition of CYP2C8” value (CYP2C8; microsomes) of the same compound?
A: low double‐digit micromolar values

Q: And the “fm by UGT1A9” value (UGT1A9 [8])?
A: 9.3%

Q: And the AUC0-24 observed [9, 11]?
A: 422 ng·h/mL

Q: And the Cmax observed [9, 11]?
A: 419 ng/mL

Q: And the tmax observed ([9]; 100 mg QD, Day 1, median)?
A: 25.2 min

Q: What about the AUCtau observed [9, 12] of the same compound?
A: 443 ng·h/mL

Q: What about the Cmax observed [9, 12] of the same compound?
A: 469 ng/mL

Q: And the tmax observed ([9]; 100 mg QD, Day 14, median)?
A: 19.8 min

Q: And the AUC0-24 observed [9, 13]?
A: 1798 ng·h/mL

Q: What about the Cmax observed [9, 13] of the same compound?
A: 1729 ng/mL

Q: And the tmax observed ([9]; 300 mg QD, Day 1, median)?
A: 25.2 min

Q: And the AUCtau observed [9, 14]?
A: 2497 ng·h/mL

Q: And the Cmax observed [9, 14]?
A: 2866 ng/mL

Q: What about the tmax observed ([9]; 300 mg QD, Day 14, median) of the same compound?
A: 19.8 min

Q: What about the AUC0-24 observed [9, 15] of the same compound?
A: 2283 ng·h/mL

Q: And the Cmax observed [9, 15]?
A: 2374 ng/mL

Q: What about the AUCtau observed [9, 16] of the same compound?
A: 2605 ng·h/mL

Q: And the Cmax observed [9, 16]?
A: 2709 ng/mL
